The results in this text go back to PubChem BioAssay (NCI).

Some test systems named below: A498 renal; MCF7 breast; SK-MEL-5 melanoma; SNB-19 CNS; MDA-MB-435; HOP-62 NSCLC; SK-MEL-28 melanoma; CAKI-1 renal; HT29 colon; NCI/ADR-RES ovarian.
Assay in all cases: growth of human tumour cells (NCI), 48 h

SMILES strings stand for the structures. Several values for one entry are separate records, joined by “and”; a condition that tells them apart may be missing. Equal entries are not always repeated.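 Assay format: 96-well plates, 48-hour exposure. Abbreviation: GI50, concentration required for 50% inhibition of growth. TGI is the concentration that stops growth completely.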 Some results are limits rather than exact numbers.

As for `CCCCCCCCCCN1CCC(N2CCCCC2)CC1`, the GI50 is 9.27 µM in the experiment on A498 renal; 1.54 µM in the experiment with MCF7 breast; 1.54 µM in the experiment with SK-MEL-5 melanoma; 3.95 µM in the experiment with SNB-19 CNS; 1.47 µM with MDA-MB-435; 2.38 µM in the experiment on HOP-62 NSCLC. In addition, the GI50 with SK-MEL-28 melanoma is 1.78 µM; with CAKI-1 renal, 1.66 µM; in the experiment on HT29 colon it was 0.606 µM; in the experiment with NCI/ADR-RES ovarian, 6.76 µM. Besides, the TGI in the experiment with A498 renal was determined as 21.7 µM; with MCF7 breast, 3.64 µM; with SK-MEL-5 melanoma, 2.87 µM; in the experiment with SNB-19 CNS it was 14.5 µM; in the experiment with MDA-MB-435, 3.55 µM; in the experiment on HOP-62 NSCLC, 7.64 µM. Besides, the TGI is 3.41 µM in the experiment on SK-MEL-28 melanoma, 3.94 µM in the experiment on CAKI-1 renal, 4.33 µM in the experiment on HT29 colon and 20.2 µM with NCI/ADR-RES ovarian.
As to `O=C(N/N=C/c1c(Cl)cccc1Cl)c1ccc(C(F)(F)F)nc1Nc1cccc(C(F)(F)F)c1`, the GI50 was 0.603 µM in the experiment with A498 renal; 1.03 µM in the experiment with MCF7 breast; 0.829 µM in the experiment with SK-MEL-5 melanoma; 1.55 µM in the experiment on SNB-19 CNS; 2.37 µM in the experiment on MDA-MB-435; 1.29 µM with HOP-62 NSCLC. The GI50 in the experiment on SK-MEL-28 melanoma was 1.82 µM; in the experiment on CAKI-1 renal, 1.03 µM; in the experiment with HT29 colon, 1.24 µM; in the experiment with NCI/ADR-RES ovarian, 0.616 µM. The TGI was 2.39 µM with A498 renal; above 35.8 µM with MCF7 breast; 2.84 µM in the experiment on SK-MEL-5 melanoma; above 100 µM in the experiment with SNB-19 CNS; above 100 µM with MDA-MB-435; 14.4 µM in the experiment on HOP-62 NSCLC. Moreover, the TGI in the experiment on SK-MEL-28 melanoma is above 37.5 µM; with CAKI-1 renal, 13.8 µM; with HT29 colon, above 100 µM.
As to `CC1=CC(=O)C(C(O)(C(F)(F)F)C(F)(F)F)C(C)(C)C1` (stereo unspecified), the TGI with A498 renal, in the experiment on MCF7 breast, in the experiment on SK-MEL-5 melanoma, with SNB-19 CNS, in the experiment on MDA-MB-435 and in the experiment on HOP-62 NSCLC was above 10 µM throughout. For the same molecule, the TGI in the experiment with SK-MEL-28 melanoma, with CAKI-1 renal, with HT29 colon and in the experiment with NCI/ADR-RES ovarian was above 10 µM throughout.
With `CCOC(CN(C)C(=S)Nc1cccc2ccccc12)OCC`, the TGI with A498 renal, with MCF7 breast, in the experiment with SK-MEL-5 melanoma, with SNB-19 CNS, in the experiment with MDA-MB-435 and in the experiment with HOP-62 NSCLC was above 10 µM in each case. The TGI with SK-MEL-28 melanoma, in the experiment on CAKI-1 renal, with HT29 colon and in the experiment with NCI/ADR-RES ovarian was above 10 µM in each case.
With `Nc1nc(N)c2cc(CNc3ccc(C(=O)NC(CC(=O)O)C(=O)O)c(Cl)c3)ccc2n1` (stereo unspecified), the GI50 in the experiment with A498 renal is 0.05 µM; in the experiment with SK-MEL-5 melanoma, 0.05 µM; in the experiment on SNB-19 CNS, 0.05 µM; with MDA-MB-435, 0.05 µM; with HOP-62 NSCLC it was 0.308 µM and 0.05 µM; with CAKI-1 renal, 0.05 µM. Moreover, the GI50 in the experiment with HT29 colon and in the experiment on NCI/ADR-RES ovarian was 0.05 µM throughout. Moreover, the TGI in the experiment on A498 renal, in the experiment with MCF7 breast, with SK-MEL-5 melanoma, with SNB-19 CNS, with MDA-MB-435 and in the experiment with HOP-62 NSCLC was above 500 µM each time. Besides, the TGI in the experiment with SK-MEL-28 melanoma was above 4.64 µM; in the experiment with CAKI-1 renal, above 500 µM; in the experiment on HT29 colon, above 500 µM; with NCI/ADR-RES ovarian, above 500 µM.
For `O=C(Nc1ccc(Cl)c(Cl)c1)Nc1ccccc1O`, the GI50 was 12.2 µM with A498 renal; 4.14 µM in the experiment with MCF7 breast; 7.71 µM with SK-MEL-5 melanoma; 9.92 µM in the experiment with SNB-19 CNS; 3.96 µM in the experiment on MDA-MB-435; 10.6 µM in the experiment with HOP-62 NSCLC. Further, the GI50 is 12.5 µM in the experiment on SK-MEL-28 melanoma, 3.72 µM with CAKI-1 renal, 18.5 µM with HT29 colon and 3.59 µM with NCI/ADR-RES ovarian. Further, the TGI was found to be 27.2 µM in the experiment with A498 renal; 21.3 µM in the experiment on MCF7 breast; 20.5 µM in the experiment on SK-MEL-5 melanoma; 44.3 µM with SNB-19 CNS; 15.3 µM in the experiment with MDA-MB-435; 24.1 µM in the experiment on HOP-62 NSCLC. In addition, the TGI with SK-MEL-28 melanoma amounted to 27.3 µM; in the experiment on CAKI-1 renal it was 20.4 µM; in the experiment with HT29 colon, 36.1 µM; in the experiment with NCI/ADR-RES ovarian, 28.5 µM.
With `CCCCCc1ccc(S(=O)(=O)Nc2cc(-c3csc(NC(C)=O)n3)ccc2N2CCN(C)CC2)cc1`, the GI50 in the experiment with A498 renal was 6.23 µM; in the experiment with MCF7 breast, 1.6 µM; with SK-MEL-5 melanoma, 5.28 µM; in the experiment with SNB-19 CNS it was 5.49 µM; with MDA-MB-435, 4.85 µM; with HOP-62 NSCLC it was 5.51 µM. The GI50 with SK-MEL-28 melanoma is 3.46 µM; with CAKI-1 renal, 4.84 µM; with HT29 colon, 1.99 µM; in the experiment with NCI/ADR-RES ovarian, 4.54 µM. The TGI in the experiment on A498 renal was 11.3 µM; with MCF7 breast it was 6.45 µM; in the experiment on SK-MEL-5 melanoma, 9.79 µM; in the experiment with SNB-19 CNS, 10.4 µM; with MDA-MB-435, 9.5 µM; in the experiment with HOP-62 NSCLC it was 12.2 µM. Also, the TGI with SK-MEL-28 melanoma was 7.49 µM; in the experiment on CAKI-1 renal it was 9.48 µM; in the experiment with HT29 colon, 8.29 µM; with NCI/ADR-RES ovarian, 9.18 µM.
For `O=c1[nH]c(=O)n([C@H]2CCCO2)cc1F`, the GI50 with A498 renal was above 2170 µM; in the experiment on MCF7 breast, 575 µM; with SK-MEL-5 melanoma it was 429 µM; in the experiment on MDA-MB-435, 1350 µM; in the experiment with HOP-62 NSCLC, 2340 µM; in the experiment on SK-MEL-28 melanoma, 1040 µM. For the same molecule, the results for the GI50 in the experiment on CAKI-1 renal, in the experiment with HT29 colon and in the experiment with NCI/ADR-RES ovarian were 2100 µM, 1370 µM and 3030 µM, respectively. In addition, the TGI was 979 µM and > 5000 µM in the experiment with A498 renal; above 5000 µM in the experiment on MCF7 breast; above 2600 µM in the experiment on SK-MEL-5 melanoma; above 5000 µM in the experiment with SNB-19 CNS; above 5000 µM with MDA-MB-435; 994 µM and > 4660 µM in the experiment on HOP-62 NSCLC. Further, the TGI in the experiment with SK-MEL-28 melanoma, with CAKI-1 renal, with HT29 colon and with NCI/ADR-RES ovarian was above 5000 µM in each case.
